Numbers after ± are expanded uncertainties.

For the data set the following is noted: 298.15 K; 101.3 kPa; Crystal; flotation method.

What is called mass density is mass per unit of volume. Consider `O=[N+]([O-])c1ccc(O)c2ncccc12` [5-nitro-8-quinolinol], for which the mass density is given as 1489.7 ± 2.5 kg/m3.

The values above are taken from the NIST ThermoML archive (doi:10.1016/j.jct.2016.04.018).
